In patent publication US10562908B2, “Ortho substituted phenylpyrazolo- and phenylpyrrolo-pyridazine derivatives having multimodal activity against pain” (priority 2016, dated 2020):
Read-outs that look alike come from different tables or passages of the source.

Assays:
[1] = target: Human α2δ-1 subunit of Cav2.2 calcium channel (Homo sapiens, UniProt P54289); test: Human α2δ-1 subunit of Cav2.2 calcium channel assay ([3H]-Gabapentin); type: binding
Procedure: Human α2δ-1 Subunit of Cav2.2 Calcium Channel Assay
Human α2δ-1 enriched membranes (2.5 μg) were incubated with 15 nM of radiolabeled [3H]-Gabapentin in assay buffer containing Hepes-KOH 10 mM, pH 7.4. NSB (non specific binding) was measured by adding 10 μM pregabalin. After 60 min incubation at 27° C., binding reaction was terminated by filtering through Multiscreen GF/C (Millipore) presoaked in 0.5% polyethyleneimine in Vacuum Manifold Station, followed by 3 washes with ice-cold filtration buffer containing 50 mM Tris-HCl, pH 7.4. Filter plates were dried at 60° C. for 1 hour and 30 μl of scintillation cocktail were added to each well before radioactivity reading. Readings were performed in a Trilux 1450 Microbeta radioactive counter (Perkin Elmer), i.e. Human α2δ-1 enriched membranes (2.5 μg) were incubated with 15 nM of radiolabeled [3H]-Gabapentin in assay buffer containing Hepes-KOH 10 mM, pH 7.4. NSB (non specific binding) was measured by adding 10 μM pregabalin. The binding of the test compound was measured at five different concentrations. After 60 min incubation at 27° C., binding reaction was terminated by filtering through Multiscreen GF/C (Millipore) presoaked in 0.5% polyethyleneimine in Vacuum Manifold Station, followed by 3 washes with ice-cold filtration buffer containing 50 mM Tris-HCl, pH 7.4. Filter plates were dried at 60° C. for 1 hour and 30 μl of scintillation cocktail were added to each well before radioactivity reading. Readings were performed in a Trilux 1450 Microbeta radioactive counter (Perkin Elmer).

human μ-opioid receptor = target: T1, human μ-opioid receptor (Homo sapiens, UniProt P35372); test: Human μ-opioid receptor radioligand assay ([3H]-DAMGO); type: binding
T1 construct: expressed in transfected cells; host or cells: CHO-K1
Procedure: Human μ-Opioid Receptor Radioligand Assay
To investigate binding properties of test compounds to human μ-opioid receptor, transfected CHO-K1 cell membranes and [^3H]-DAMGO (Perkin Elmer, ES-542-C), as the radioligand, were used. The assay was carried out with 20 μg of membrane suspension, 1 nM of [^3H]-DAMGO in either absence or presence of either buffer or 10 μM Naloxone for total and non-specific binding, respectively. Binding buffer contained Tris-HCl 50 mM, MgCl2 5 mM at pH 7.4. Plates were incubated at 27° C. for 60 minutes. After the incubation period, the reaction mix was then transferred to MultiScreen HTS, FC plates (Millipore), filtered and plates were washed 3 times with ice-cold 10 mM Tris-HCL (pH 7.4). Filters were dried and counted at approximately 40% efficiency in a MicroBeta scintillation counter (Perkin-Elmer) using EcoScint liquid scintillation cocktail, preferably, transfected CHO-K1 cell membranes (20 μg) were incubated with 1 nM of [^3H]-DAMGO in assay buffer containing Tris-HCl 50 mM, MgCl2 5 mM at pH 7.4. NBS (non-specific binding) was measured by adding 10 μM Naloxone. The binding of the test compound was measured at five different concentrations. Plates were incubated at 27° C. for 60 minutes. After the incubation period, the reaction mix was then transferred to MultiScreen HTS, FC plates (Millipore), filtered and plates were washed 3 times with ice-cold 10 mM Tris-HCL (pH 7.4). Filters were dried and counted at approximately 40% efficiency in a MicroBeta scintillation counter (Perkin-Elmer) using EcoScint liquid scintillation cocktail.

[2] = human α2δ-1 enriched membranes, 15 nM [3H]-Gabapentin, read-out: Binding α2δ-1 (Ki)
[3] = transfected CHO-K1 cell membranes, 1 nM [3H]-DAMGO, read-out: Binding μ (Ki)

Chain of Human α2δ-1 subunit of Cav2.2 calcium channel (P54289 25-1103): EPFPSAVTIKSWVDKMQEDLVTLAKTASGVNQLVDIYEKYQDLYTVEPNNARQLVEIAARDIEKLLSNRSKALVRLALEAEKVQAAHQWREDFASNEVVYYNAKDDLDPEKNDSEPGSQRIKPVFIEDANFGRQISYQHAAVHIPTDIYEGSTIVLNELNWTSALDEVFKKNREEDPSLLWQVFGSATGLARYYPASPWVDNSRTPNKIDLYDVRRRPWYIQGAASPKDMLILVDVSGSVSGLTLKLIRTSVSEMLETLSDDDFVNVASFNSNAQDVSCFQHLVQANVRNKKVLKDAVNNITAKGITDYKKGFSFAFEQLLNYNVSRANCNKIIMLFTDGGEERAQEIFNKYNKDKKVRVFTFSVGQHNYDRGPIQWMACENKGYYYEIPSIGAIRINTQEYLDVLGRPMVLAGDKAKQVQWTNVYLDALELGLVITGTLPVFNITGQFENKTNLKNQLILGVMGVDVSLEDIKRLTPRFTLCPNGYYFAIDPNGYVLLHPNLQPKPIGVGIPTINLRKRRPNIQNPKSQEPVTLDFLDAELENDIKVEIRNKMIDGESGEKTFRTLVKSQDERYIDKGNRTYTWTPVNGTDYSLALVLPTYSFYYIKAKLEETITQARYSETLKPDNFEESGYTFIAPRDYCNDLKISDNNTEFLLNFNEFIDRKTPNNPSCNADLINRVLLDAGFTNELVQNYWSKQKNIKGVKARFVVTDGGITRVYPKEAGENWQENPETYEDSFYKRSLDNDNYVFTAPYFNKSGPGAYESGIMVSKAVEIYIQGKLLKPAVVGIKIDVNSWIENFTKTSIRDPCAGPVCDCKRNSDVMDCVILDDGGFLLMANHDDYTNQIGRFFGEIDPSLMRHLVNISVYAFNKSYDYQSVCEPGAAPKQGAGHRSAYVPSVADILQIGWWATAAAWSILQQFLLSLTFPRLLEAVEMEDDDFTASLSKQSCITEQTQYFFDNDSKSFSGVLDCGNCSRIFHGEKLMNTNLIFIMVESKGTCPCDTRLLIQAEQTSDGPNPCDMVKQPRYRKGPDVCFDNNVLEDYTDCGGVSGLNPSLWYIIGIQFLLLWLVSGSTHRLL
T1 sequence (P35372 whole entry): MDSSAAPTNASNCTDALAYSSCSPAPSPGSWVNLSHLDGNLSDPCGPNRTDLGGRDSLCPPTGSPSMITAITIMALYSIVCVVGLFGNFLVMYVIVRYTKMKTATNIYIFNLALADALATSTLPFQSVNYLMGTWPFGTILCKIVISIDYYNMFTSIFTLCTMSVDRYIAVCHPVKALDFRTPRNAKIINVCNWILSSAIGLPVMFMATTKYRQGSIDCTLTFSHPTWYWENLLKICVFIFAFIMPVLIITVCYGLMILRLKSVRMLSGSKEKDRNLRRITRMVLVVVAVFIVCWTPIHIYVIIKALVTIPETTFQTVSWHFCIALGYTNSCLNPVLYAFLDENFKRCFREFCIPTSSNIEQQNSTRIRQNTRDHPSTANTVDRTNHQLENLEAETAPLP

| Ki [1, 2] | Ki (human μ-opioid receptor; [3]) | SMILES | Ki [1] | Ki (human μ-opioid receptor) |
| --- | --- | --- | --- | --- |
| – | – | Cc1nnc(N(C)C)c2nn(-c3ccccc3OC(CCN(C)C)c3ccccc3)c(C)c12 (centres unmarked) [Example 52, 2-(2-(3-(Dimethylamino)-1-phenylpropoxy)phenyl)-N,N,3,4-tetramethyl-2H-pyrazolo[3,4-d]pyridazin-7-amine] | 500 to 5000 nM | 100 to 500 nM |
| > 5000 nM | > 500 nM | Cc1nnc(N(C)C)c2nn(-c3ccccc3OC3CCN(C)C3)c(C)c12 (centres unmarked) [Example 53, N,N,3,4-tetramethyl-2-(2-((1-methylpyrrolidin-3-yl)oxy)phenyl)-2H-pyrazolo[3,4-d]pyridazin-7-amine] | – | – |
| > 5000 nM | > 500 nM | Cc1nnc(N(C)C)c2nn(-c3ccccc3OC(c3ccccc3)C3CCN(C)CC3)c(C)c12 (centres unmarked) [Example 54, N,N,3,4-tetramethyl-2-(2-((1-methylpiperidin-4-yl)(phenyl)methoxy)phenyl)-2H-pyrazolo[3,4-d]pyridazin-7-amine] | – | – |
| – | – | Cc1nnc(N(C)C)c2nn(-c3ccccc3OC3CCN(CCc4ccccc4)C3)c(C)c12 (centres unmarked) [Example 55, N,N,3,4-tetramethyl-2-(2-((1-phenethylpyrrolidin-3-yl)oxy)phenyl)-2H-pyrazolo[3,4-d]pyridazin-7-amine] | 500 to 5000 nM | 100 to 500 nM |
| – | – | Cc1nnc(N(C)C)c2nn(-c3ccccc3OC(CCNCC(F)F)c3ccccc3)c(C)c12 (centres unmarked) [Example 56, 2-(2-(3-((2,2-difluoroethyl)amino)-1-phenylpropoxy)phenyl)-N,N,3,4-tetramethyl-2H-pyrazolo[3,4-d]pyridazin-7-amine] | 500 to 5000 nM | 100 to 500 nM |
| > 5000 nM | > 500 nM | Cc1nnc(N(C)C)c2nn(-c3ccccc3OCC3CCN(Cc4ccccc4)CC3)c(C)c12 [Example 57, 2-(2-((1-benzylpiperidin-4-yl)methoxy)phenyl)-N,N,3,4-tetramethyl-2H-pyrazolo[3,4-c]pyridazin-7-amine] | – | – |
| – | – | Cc1nnc(N(C)C)c2nn(-c3ccccc3OCC3CCN(CCc4ccccc4)CC3)c(C)c12 [Example 58, N,N,3,4-tetramethyl-2-(2-((1-phenethylpiperidin-4-yl)methoxy)phenyl)-2H-pyrazolo[3,4-d]pyridazin-7-amine] | > 5000 nM | < 100 nM |
| 500 to 5000 nM | > 500 nM | CNCCC(Oc1ccccc1-n1nc2c(N(C)CCO)nnc(C)c2c1C)c1ccccc1 (centres unmarked) [Example 59, 2-((3,4-Dimethyl-2-(2-(3-(methylamino)-1-phenylpropoxy)phenyl)-2H-pyrazolo[3,4-d]pyridazin-7-yl)(methyl)amino)etanol] | – | – |
| 500 to 5000 nM | > 500 nM | CNCCC(Oc1ccccc1-n1nc2c(N(C)CCOC)nnc(C)c2c1C)c1ccccc1 (centres unmarked) [Example 60, N-(2-methoxyethyl)-N,3,4-trimethyl-2-(2-(3-(methylamino)-1-phenylpropoxy)phenyl)-2H-pyrazolo[3,4-d]pyridazin-7-amine] | – | – |
| 500 to 5000 nM | > 500 nM | CNCCC(Oc1ccccc1-n1nc2c(N(C)CCCO)nnc(C)c2c1C)c1ccccc1 (centres unmarked) [Example 61, 3-((3,4-dimethyl-2-(2-(3-(methylamino)-1-phenylpropoxy)phenyl)-2H-pyrazolo[3,4-d]pyridazin-7-yl)(methyl)amino)propan-1-ol] | – | – |
| 500 to 5000 nM | > 500 nM | CNCCC(Oc1ccccc1-n1nc2c(N(C)CCN(C)C)nnc(C)c2c1C)c1ccccc1 (centres unmarked) [Example 62, N1-(3,4-dimethyl-2-(2-(3-(methylamino)-1-phenylpropoxy)phenyl)-2H-pyrazolo[3,4-d]pyridazin-7-yl)-N1,N2,N2-trimethylethane-1,2-diamine] | – | – |
| > 5000 nM | > 500 nM | CNCCC(Oc1ccccc1-n1nc2c(CC#N)nnc(C)c2c1C)c1ccccc1 (centres unmarked) [Example 63, 2-(3,4-Dimethyl-2-(2-(3-(methylamino)-1-phenylpropoxy)phenyl)-2H-pyrazolo[3,4-d]pyridazin-7-yl)acetonitrile] | – | – |
| > 5000 nM | > 500 nM | CNCCC(Oc1ccccc1-n1nc2c(Cc3noc(C)n3)nnc(C)c2c1C)c1ccccc1 (centres unmarked) [Example 64, 3-(2-(3,4-Dimethyl-7-((5-methyl-1,2,4-oxadiazol-3-yl)methyl)-2H-pyrazolo[3,4-d]pyridazin-2-yl)phenoxy)-N-methyl-3-phenylpropan-1-amine] | – | – |
| – | – | CNCCC(Oc1ccccc1-n1c(C)c2c(C)nnc(C)c2c1C)c1ccccc1 (centres unmarked) [Example 65, N-Methyl-3-phenyl-3-(2-(1,4,5,7-tetramethyl-6H-pyrrolo[3,4-d]pyridazin-6-yl)phenoxy)propan-1-amine] | 500 to 5000 nM | 100 to 500 nM |
| > 5000 nM | > 500 nM | CNCCC(Oc1ccccc1-n1nc2cnnc(C)c2c1C)c1ccccc1 (centres unmarked) [Example 66, 3-(2-(3,4-Dimethyl-2H-pyrazolo[3,4-d]pyridazin-2-yl)phenoxy)-N-methyl-3-phenylpropan-1-amine] | – | – |
| 500 to 5000 nM | > 500 nM | CNCC(Oc1ccccc1-n1nc2c(N(C)C)nnc(C)c2c1C)c1ccccc1 (centres unmarked) [Example 67, N,N,3,4-Tetramethyl-2-(2-(2-(methylamino)-1-phenylethoxy)phenyl)-2H-pyrazolo[3,4-d]pyridazin-7-amine] | – | – |
| 500 to 5000 nM | > 500 nM | CNCCC(Oc1ccccc1-n1nc2c(NC)nnc(C)c2c1C)c1ccccc1 (centres unmarked) [Example 68, N,3,4-Trimethyl-2-(2-(3-(methylamino)-1-phenylpropoxy)phenyl)-2H-pyrazolo[3,4-d]pyridazin-7-amine] | – | – |
| > 5000 nM | > 500 nM | CNCCC(Oc1ccccc1-n1nc2c(C)nnc(C)c2c1C)c1ccccc1 (centres unmarked) [Example 69, N-methyl-3-phenyl-3-(2-(3,4,7-trimethyl-2H-pyrazolo[3,4-d]pyridazin-2-yl)phenoxy)propan-1-amine] | – | – |
| > 5000 nM | > 500 nM | CNCCC(Oc1ccccc1-n1nc2c(C(C)C)nnc(C)c2c1C)c1ccccc1 (centres unmarked) [Example 70, 3-(2-(7-isopropyl-3,4-dimethyl-2H-pyrazolo[3,4-d]pyridazin-2-yl)phenoxy)-N-methyl-3-phenylpropan-1-amine] | – | – |
| 500 to 5000 nM | > 500 nM | CNCCC(Oc1ccccc1-n1cc2cnnc(N(C)C)c2n1)c1ccccc1 (centres unmarked) [Example 71, N,N-dimethyl-2-(2-(3-(methylamino)-1-phenylpropoxy)phenyl)-2H-pyrazolo[3,4-d]pyridazin-7-amine] | – | – |
| 500 to 5000 nM | > 500 nM | CNCc1ccccc1COc1ccccc1-n1nc2c(N(C)C)nnc(C)c2c1C [Example 72, N,N,3,4-Tetramethyl-2-(2-((2-((methylamino)methyl)benzyl)oxy)phenyl)-2H-pyrazolo[3,4-d]pyridazin-7-amine] | – | – |
| – | – | Cc1nnc(N(C)C)c2nn(-c3ccccc3OC(CCNCCF)c3ccccc3)c(C)c12 (centres unmarked) [Example 73, 2-(2-(3-((2-Fluoroethyl)amino)-1-phenylpropoxy)phenyl)-N,N,3,4-tetramethyl-2H-pyrazolo[3,4-d]pyridazin-7-amine] | 500 to 5000 nM | < 100 nM |
| > 5000 nM | > 500 nM | Cc1nnc(N(C)C)c2nn(-c3ccccc3OC(Cc3ccccc3)CN(C)Cc3ccccc3)c(C)c12 (centres unmarked) [Example 74, 2-(2-((1-(Benzyl(methyl)amino)-3-phenylpropan-2-yl)oxy)phenyl)-N,N,3,4-tetramethyl-2H-pyrazolo[3,4-d]pyridazin-7-amine] | – | – |
| > 5000 nM | > 500 nM | Cc1nnc(N(C)C)c2nn(-c3ccccc3OC(CCN(C)Cc3ccccc3)Cc3ccccc3)c(C)c12 (centres unmarked) [Example 75, 2-(2-((4-(benzyl(methyl)amino)-1-phenylbutan-2-yl)oxy)phenyl)-N,N,3,4-tetramethyl-2H-pyrazolo[3,4-d]pyridazin-7-amine] | – | – |
| 500 to 5000 nM | > 500 nM | CNCC(Cc1ccccc1)Oc1ccccc1-n1nc2c(N(C)C)nnc(C)c2c1C (centres unmarked) [Example 76, N,N,3,4-Tetramethyl-2-(2-((1-(methylamino)-3-phenylpropan-2-yl)oxy)phenyl)-2H-pyrazolo[3,4-d]pyridazin-7-amine] | – | – |
